Laboratory results taken from US20120251495A1, “PTERIN BASED THERAPIES FOR INFLAMMATORY CONDITIONS” (priority 2008, published 2012).

Key:
Format in all cases: in vivo
hepatitis B virus (HBV) [1] = test: Liver HBV DNA by quantitative PCR in HBV transgenic mice; conditions: female HBV mice; 10 mg/(kg d), per os 14 days
hepatitis B virus (HBV) [2] = test: Liver HBV DNA by Southern blot hybridization in HBV transgenic mice; conditions: 10 mg/(kg d)
Description: Animals. Homozygous adult female and male transgenic HBV mice were used (20.6±2.8 g). The mice were originally obtained from Dr. Frank Chisari (Scripps Research Institute, La Jolla, Calif.) (Guidotti L G, Matzke B, Schaller H & Chisari F V. High-level hepatitis B virus replication in transgenic mice. J Virol 1995; 69:6158-6169) and were subsequently raised in the Biosafety Level 3 (BL-3) area of the AAALAC-accredited USU Laboratory Animal Research Center (LARC). The animals were derived from founder 1.3.32 (Guidotti L G, Matzke B, Schaller H & Chisari F V. High-level hepatitis B virus replication in transgenic mice. J Virol 1995; 69:6158-6169). This study was conducted in accordance with the approval of the Institutional Animal Care and Use Committee of Utah State University.
(§1) Experimental design. DCP was administered per os, once daily for 14 days to randomly assigned HBV transgenic mice at 23, 7.3, and 2.3 mg/(kg d). ADV was used as a positive control at 10 mg/(kg d) using the same treatment schedule and vehicle (0.4% CMC). On day 14, mice were euthanized to collect serum and liver samples to perform liver HBV DNA, liver core and serum HBe assays, serum cytokine/chemokine profiles, and IDO metabolite assays.
Liver HBV DNA assays. Southern blot hybridization and quantitative PCR (qPCR) were performed on liver tissues (Morrey J D, Motter N E, Tam B, Lay M & Fairman J. Efficacy of cationic lipid-DNA complexes (CLDC) on hepatitis B virus in transgenic mice. Antiviral Res 2008; 79:71-79). For Southern blot hybridization, the ratio of the viral DNA bands to the transgene band was used to determine the concentration of viral DNA per host DNA. This calculation was based upon the knowledge that there were 1.3 copies of the transgene present per host cell with this line of transgenic mice. The transgene was used as an internal indicator to calculate the pg of HBV DNA per μg of homozygous cellular host DNA. For qPCR, the assay was run with a series of 10-fold dilutions of pooled liver DNA from HBV transgenic mice to obtain a standard curve. Mean C(t) values were obtained for duplicates of each sample. The mean C(t) values of each sample were used to obtain the log relative DNA values using a formula of the fit line of the standard curve.

HBe antigen = test: Sera HBeAg ELISA in HBV transgenic mice; conditions: females; 10 mg/(kg d)
Experimental: as §1
Sera HBeAg. Whole blood samples were obtained during necropsy by cardiac puncture, and processed for an HBeAg-specific ELISA (International Immuno Diagnostics, Foster City Calif.) (Money J D, Motter N E, Taro B, Lay M & Fairman J. Efficacy of cationic lipid-DNA complexes (CLDC) on hepatitis B virus in transgenic mice. Antiviral Res 2008; 79:71-79). Using the known PEI (Paul Ehrlich Institute) units for the calibrator, PEI units were formulated for the serial dilutions of the positive serum. A graph was generated, and extrapolation was used to assign a PEI unit value for each sample.

[3] = system: hepatitis B core antigen (HBcAg); test: Liver HBcAg assay in HBV transgenic mice; conditions: 10 mg/(kg d)
Experimental: as §1
Liver HBcAg assay. Liver biopsies were processed for detection of hepatitis B core antigen (HBcAg) (Motley J D, Motter N E, Taro B, Lay M & Fairman J. Efficacy of cationic lipid-DNA complexes (CLDC) on hepatitis B virus in transgenic mice. Antiviral Res 2008; 79:71-79). Three different parameters were obtained from each tissue section. […] The first two parameters were obtained by counting cells surrounding central veins as follows: the total number of cells, the number of cells with stained nuclei, and the number of cells with stained cytoplasms. The identities of the samples were blinded to person counting. The stained nuclei counts or the stained cytoplasm counts were divided by the total cells. Three central vein areas were counted for each slide sample. For the third parameter, a field not in a central vein area was counted for the total number of stained nuclei. One-quarter of the field was counted. Three such fields were counted per liver section. The identity of the samples was blinded to the person reading the slides.

SMILES: CC(C)(C)C(=O)OCOP(=O)(COCCn1cnc2c(N)ncnc21)OCOC(=O)C(C)(C)C [Adefovir dipivoxil, adefovir dipivoxil, reference compound]
- Log HBV DNA (PCR) versus controls (hepatitis B virus (HBV) [1]): significant treatment decreases
- Liver HBV DNA (Southern), Female levels (mean ± SEM) (hepatitis B virus (HBV) [2]; female): 3.5 ± 0.55 pg/µg
- Liver HBV DNA (Southern), Male levels (mean ± SEM) (hepatitis B virus (HBV) [2]; male): 1.5 ± 0.37 pg/µg
- HBe antigen (ELISA) versus controls (HBe antigen): significant increase
- HBcAg Stained nuclei/total, Female levels (mean ± SEM) ([3]; female): 27.7 ± 3.0
- HBcAg Stained nuclei/total, Male levels (mean ± SEM) ([3]; male): 14.1 ± 3.5
